Values belong to the compound of their own block, whether it stands above or below them.
How the values were obtained:
[1] = oral, eight-week-old male untrained mice; cited from earlier work
[2] = test system: Ulk1; assay: Phosphorylation of downstream AMPK target Ulk1; assay type: cell-based; settings: FIG. 10F
Protocol: (§1) FIGS. 10A-10F. FIGS. 10A and 10B. Dose and time dependent effects of C19 on phosphorylation of AMPK. In FIG. 10B, C19 was used at 5 μM. FIG. 10C. Effect of AICAR on phosphorylation of AMPK. FIG. 10D. Confirmation in different cell lines. FIGS. 10E and 10F. Effect of C19 on phosphorylation of downstream AMPK targets ACC and UIK1.
(§2) Investigation of the mechanism by which C19 exert its activity led to the discovery that, in addition to its effect on MST/Lats, this compound acts as a potent activator of the metabolic enzyme and tumor suppressor kinase AMPK (FIG. 10).

[3] = test system: melanoma cells WM266; assay: Tumor xenograft mouse model; assay type: in vivo
Protocol: FIGS. 9A-9B. Effect of C19 (mg/Kg) on tumor growth (FIG. 9A) and body weight (FIG. 9B). Data represents 7 replicates ±SE. *p<0.05., **p<0.01.
To obtain information regarding the efficacy of C19 in a tumor xenograft mouse model, nude mice (strain CD1) were injected subcutaneously with melanoma cells WM266. After tumors became palpable (˜5 mm in diameter), the mice were randomized into control and treatment groups (n=7). The control group was injected intraperitoneally with the vehicle (DMSO 3% in 200 μl of DMEM) and the treatment groups were injected with increasing doses of C19 (in mg/Kg) dissolved in 200 μl of vehicle solution. The animals received 3 injections starting on day 15 and separated by three days. Tumor volumes and body weight were measured on a daily basis.

[4] = test system: ACC; assay: Phosphorylation of downstream AMPK target ACC; assay type: cell-based; settings: FIG. 10E
Protocol: as §1, §2

[5] = test system: Hippo pathway; assay: TEAD luciferase reporter (8xGT-II) as readout for Hippo signaling; assay type: cell-based; settings: for inhibition of Hippo signaling: FIG. 8; for activity of Hippo reporter: FIG. 5
Protocol: (§3) FIGS. 1A-1C. Screening for small molecules inhibitors of the Hippo pathway. FIG. 1A. Hippo associated luciferase reporter (8xGT-II) was used to screen a series of 30 thiadiazole derivatives. Cells transfected with the construct were incubated in the absence (c) or presence of the compounds at 10 μM for 24 hours. Luciferase activity expressed in arbitrary units (AU) was measured in protein extracts. Data represent average for three replicates ±SE. FIG. 1B. Structure of S21 compound. FIG. 1C. Activity of S21 on Hippo versus CMV-Luciferase reporter measured as described above.
(§4) FIG. 2. S21 as a common inhibitor of Wnt, TGF beta and Hippo. 293 cells were transfected with luciferase reporters corresponding to each pathway and then exposed to S21, the Wnt inhibitor Pyrvinium (PYR) or the TGF beta inhibitor SB-431 at the indicated concentrations. After 24 hours, the cells were lysed and luciferase activity measured. Data represent average of three replicates ±SE.
(§5) FIG. 5. Effect of S21 versus Pirfenidone on activity of Wnt, TGF beta and Hippo reporters. 293 cells were transfected with luciferase reporters corresponding to the three pathways and then incubated with the indicated concentration of S21 or Pirfenidone for 24 hours. Luciferase activity was measured in the protein extract. Each point represents average of three determinations ±SE.
(§6) A TEAD luciferase reporter system was used as a readout for Hippo signaling, to screen a series of thiadiazole derivatives synthesized in our laboratory. For this, 293 cells transfected with the reporter construct were incubated in the absence or the presence of individual compounds at 10 μM concentration each for 24 hours. Proteins were then extracted and used as a source of enzyme of luciferase activity.

[6] = test system: AMPK; assay: Phosphorylation (activation) of AMPK; assay type: cell-based; settings: for activation of AMPK: FIG. 8
Protocol: as §1, §2

[7] = test system: TGF beta; assay: TGF beta luciferase reporter in 293 cells; assay type: cell-based; settings: for activity of TGF beta reporter: FIG. 5
Protocol: as §4, §5
(§7) By comparison, none of Wnt or TGF beta inhibitors had affected the Hippo pathway reporter.

[8] = test system: Wnt; assay: Wnt luciferase reporter in 293 cells; assay type: cell-based; settings: for activity of Wnt reporter: FIG. 5
Protocol: as §4, §5, §7

[9] = test system: cell migration; assay: Cell monolayer scratch assay; assay type: cell-based; settings: FIG. 4B
Protocol: (§8) FIGS. 4A-4D. Inhibition of EMT, cell migration, proliferation and resistance to therapy by S21. FIG. 4A. Western blots showing inhibition of various EMT genes in melanoma cells WM266 exposed to the indicated concentrations of S21 for 24 hours. FIG. 4B. Cell monolayer scratch assay depicting inhibition of cell migration by S21. FIG. 4C. Effect of S21 on cell proliferation measured after 5 days of incubation. FIG. 4D. Cell response to doxorubicin was measured in the presence of and absence of S21. Data in panels C and D represent average of three determinations ±SE.
(§9) Future studies will be needed to elucidate the underlying mechanism.

[10] = test system: beta catenin; assay: Western blot, nucleocytoplasmic localization of beta catenin; assay type: cell-based; settings: FIG. 3B
Protocol: (§10) FIGS. 3A-3B. Effect of S21 on key elements of the Hippo pathway. Western blot analysis was carried out to determine the effect of S21 on expression and phosphorylation of MST/Lats (FIG. 3A) and nucleocytoplasmic localization of YAP and beta catenin (FIG. 3B).
(§11) To gain insights into the mechanism(s) by which S21 inhibits the Hippo pathway, its effect on activation of the core kinases MST1 and Lats1 was analyzed.

[11] = target: T1, Lats1 (Homo sapiens, UniProt O95835); assay: Western blot, phosphorylation of core kinase Lats1; assay type: cell-based; settings: dose-dependent, FIG. 3A
T1 construct: endogenous in cells
T1 sequence (O95835 1-1130): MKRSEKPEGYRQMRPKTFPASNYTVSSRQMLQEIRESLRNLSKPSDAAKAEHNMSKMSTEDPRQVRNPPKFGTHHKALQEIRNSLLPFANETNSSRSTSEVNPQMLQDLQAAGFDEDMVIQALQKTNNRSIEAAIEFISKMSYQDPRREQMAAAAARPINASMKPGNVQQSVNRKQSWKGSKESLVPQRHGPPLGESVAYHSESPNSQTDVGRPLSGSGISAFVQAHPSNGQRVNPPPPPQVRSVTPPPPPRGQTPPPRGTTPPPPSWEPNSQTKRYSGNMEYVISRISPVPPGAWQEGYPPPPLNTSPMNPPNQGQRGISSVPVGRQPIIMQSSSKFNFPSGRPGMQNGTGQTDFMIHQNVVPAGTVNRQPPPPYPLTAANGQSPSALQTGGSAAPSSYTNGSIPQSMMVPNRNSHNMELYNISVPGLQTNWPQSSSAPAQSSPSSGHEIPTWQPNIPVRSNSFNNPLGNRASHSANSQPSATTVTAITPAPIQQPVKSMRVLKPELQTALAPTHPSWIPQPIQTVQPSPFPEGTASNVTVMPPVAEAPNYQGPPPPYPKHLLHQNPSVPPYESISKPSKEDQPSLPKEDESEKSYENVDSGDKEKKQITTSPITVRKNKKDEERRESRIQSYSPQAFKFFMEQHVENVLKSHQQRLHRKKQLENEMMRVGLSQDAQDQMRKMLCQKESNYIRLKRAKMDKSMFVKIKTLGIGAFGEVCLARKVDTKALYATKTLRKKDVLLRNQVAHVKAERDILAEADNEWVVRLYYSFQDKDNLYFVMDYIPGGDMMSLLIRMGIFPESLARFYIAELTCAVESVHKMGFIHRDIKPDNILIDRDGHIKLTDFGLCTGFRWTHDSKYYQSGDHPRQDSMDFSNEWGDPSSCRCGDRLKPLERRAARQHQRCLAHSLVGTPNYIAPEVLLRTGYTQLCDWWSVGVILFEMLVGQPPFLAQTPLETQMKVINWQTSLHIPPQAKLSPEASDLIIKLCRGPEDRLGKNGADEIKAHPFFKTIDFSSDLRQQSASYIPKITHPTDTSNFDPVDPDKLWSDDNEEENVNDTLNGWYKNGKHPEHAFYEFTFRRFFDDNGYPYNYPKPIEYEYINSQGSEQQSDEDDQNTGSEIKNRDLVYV
Protocol: as §10, §11

[12] = test system: melanoma cell; assay: Cell response to doxorubicin with and without S21; assay type: cell-based; settings: FIG. 4D
Protocol: as §8, §9

[13] = test system: fibroblasts; assay: Expression of fibrotic markers (QPCR, Western blot); assay type: cell-based; settings: RNA and protein level
Description: FIGS. 6A-6B. S21 inhibits expression of pro-fibrotic and pro-EMT genes. FIG. 6A. QPCR analysis depicting expression levels of pro-EMT ad fibrosis genes in the absence and the presence of S21. FIG. 6B. Western blot analysis showing the effect of S21 on expression of fibronectin, collagen and vimentin. Beta catenin was used as a loading control.

[14] = test system: three melanoma and one colon cancer cell lines; assay: Cell proliferation after 5 days of incubation; assay type: cell-based
Protocol: as §8, §9

[15] = test system: luciferase driven by the CMV promoter; assay: CMV-Luciferase reporter (specificity control); assay type: cell-based
Protocol: as §3, §6

[16] = target: T2, MST1 (Homo sapiens, UniProt Q13043); assay: Western blot, phosphorylation of core kinase MST1; assay type: cell-based; settings: dose-dependent, FIG. 3A
T2 construct: endogenous in cells
T2 sequence (Q13043 1-487): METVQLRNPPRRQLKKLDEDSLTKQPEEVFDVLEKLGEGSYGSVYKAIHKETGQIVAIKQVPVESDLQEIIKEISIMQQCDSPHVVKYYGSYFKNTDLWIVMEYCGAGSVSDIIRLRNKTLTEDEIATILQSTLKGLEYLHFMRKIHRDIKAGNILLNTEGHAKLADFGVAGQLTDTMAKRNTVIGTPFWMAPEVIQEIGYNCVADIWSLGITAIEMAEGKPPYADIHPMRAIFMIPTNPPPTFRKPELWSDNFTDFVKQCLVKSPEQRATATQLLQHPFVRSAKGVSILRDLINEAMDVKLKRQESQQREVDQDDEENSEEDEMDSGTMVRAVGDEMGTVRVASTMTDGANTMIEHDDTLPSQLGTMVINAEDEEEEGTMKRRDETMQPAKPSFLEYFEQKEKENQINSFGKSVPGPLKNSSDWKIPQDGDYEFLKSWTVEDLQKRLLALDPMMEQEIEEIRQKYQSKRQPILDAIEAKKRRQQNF
Protocol: as §10, §11

[17] = test system: YAP; assay: Western blot, nucleocytoplasmic localization of YAP; assay type: cell-based; settings: FIG. 3B
Protocol: as §10, §11

[18] = test system: melanoma cells WM266; assay: Western blots of EMT genes and downstream target genes; assay type: cell-based; settings: WM266, 24 hours
Protocol: as §8, §9

[19] = tested for up to 100 μM, data not shown

SMILES: NC(=O)c1ncn([C@@H]2O[C@H](CO)[C@@H](O)[C@H]2O)c1N [AICAR, 5-aminoimidazole-4-carboxamide 1-D-ribonucleoside]
- increase in endurance without exercise [1]: 44%

SMILES: OCCCCOc1nsnc1-c1ccc(Cl)c(Cl)c1 [C19, 4-((4-(3,4-dichlorophenyl)-1,2,5-thiadiazol-3-yl)oxy)butan-1-ol]
- phosphorylation of Ulk1 [2]: induced phosphorylation
- inhibition of tumor growth ([3]; 20 mg/Kg intraperitoneal, 3 injections from day 15): about 90%
- tumor growth ([3]; intraperitoneal, increasing doses, 3 injections from day 15): suppresses tumor growth in a dose dependent manner
- signs of toxicity or death ([3]; throughout the experiment): No signs of toxicity or death
- body weight compared to controls ([3]; treatment groups, FIG. 9B): did not change significantly
- phosphorylation of ACC [4]: induced phosphorylation
- inhibition of Hippo signaling [5]: inhibition
- activation of AMPK [6]: activation
- potency on AMPK relative to AICAR ([6]; FIG. 10C): at least 10 times
- effect on AMPK in different cell lines ([6]; FIG. 10D): validated
- phosphorylation (activation) of AMPK ([6]; concentration and time dependent, FIGS. 10A and 10B): induced phosphorylation

- activity of Hippo reporter ([5]; 293 cells, 24 hours): without effect
- inhibition of Hippo reporter [5, 19]: no inhibition was detected
SMILES: Cc1ccc(=O)n(-c2ccccc2)c1 [Pirfenidone, reference compound]
- activity of TGF beta reporter ([7]; 293 cells, 24 hours): without effect
- inhibition of TGF beta reporter [7, 19]: no inhibition was detected
- activity of Wnt reporter ([8]; 293 cells, 24 hours): without effect
- inhibition of Wnt reporter [8, 19]: no inhibition was detected

SMILES: OCCCCOc1nsnc1-c1ccc(Cl)cc1 [S21]
- cell migration [9]: strongly inhibited
- nuclear and cytoplasmic levels of beta catenin [10]: reduced nuclear localization and enhanced cytoplasmic levels
- phosphorylation of Lats1 [11]: induced phosphorylation
- inhibition of TGF beta signaling reporter ([7]; 293 cells, 24 hours, FIG. 2): remarkably inhibited
- activity of TGF beta reporter ([7]; 293 cells, 24 hours): dose dependent inhibition
- melanoma cell response to doxorubicin in presence of compound [12]: significantly enhanced
- expression of Collagen [13]: dose dependent decrease
- expression of Finbronectin [13]: dose dependent decrease
- response of metastatic WM266 versus non-metastatic WM115 ([14]; melanoma cell lines): responded better
- anti-proliferative action ([14]; three melanoma and one colon cancer cell lines): anti-proliferative action
- inhibition of luciferase driven by the CMV promoter [15]: did not inhibit
- phosphorylation of MST1 [16]: induced phosphorylation
- nuclear and cytoplasmic levels of YAP [17]: reduced nuclear localization and enhanced cytoplasmic levels
- expression of EMT-associated gene Zeb1 [18]: strongly inhibits
- level of Cyclin D [18]: reduced
- level of Hes [18]: reduced
- level of Myc [18]: reduced
- inhibition of TEAD luciferase reporter activity (Hippo signaling) ([5]; 293 cells, 10 μM, 24 hours): strongest inhibition
- activity of Hippo reporter ([5]; 293 cells, 24 hours): dose dependent inhibition
- inhibition of Hippo signaling [5]: inhibition
- activation of AMPK [6]: activation
- inhibition of Wnt signaling reporter ([8]; 293 cells, 24 hours, FIG. 2): remarkably inhibited
- activity of Wnt reporter ([8]; 293 cells, 24 hours): dose dependent inhibition

Source: patent US9649300B2, “Inhibition of WNT, TGF beta and Hippo signaling pathways to treat cancer, organ fibrosis and metabolic disorders” (University of Pittsburgh—of the Commonwealth System of …, priority 2013, dated 2017)
